Experimental data taken from the NIST ThermoML archive (doi:10.1021/acs.jced.6b00893).
± gives the expanded uncertainty stated by the source. One block for each compound: values may come before it.

Conditions: Liquid, Ebulliometric method (Recirculating still)

Structure (SMILES): C=CCO [2-propenol]
vapor or sublimation pressure (369.75 K): 101.3 ± 0.5 kPa

vapor or sublimation pressure (353.25 K): 101.3 ± 0.5 kPa
Structure (SMILES): c1ccccc1 [benzene]

vapor or sublimation pressure (373.15 K): 101.3 ± 0.5 kPa
Structure (SMILES): O [water]
